This passage reports EC50 and IC50 results from patent publication US8987195B2 (priority 2012, dated 2015).

As usually defined, the EC50 is the concentration that produces a half-maximal response. For orientation: IC50 means the concentration needed to halve the response being measured.

The test system of assay [1] is HCV genotype 1b replicon. The assay is described as follows: HCV replicon assay, genotype 1b replicon EC50. The settings on record: Hepatitis C virus, read-out: EC50 [gt-1b]. Format: cell-based, Hepatitis C virus. The gist of the method:
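Stable neomycin-selected genotype 1b replicon cells, some carrying luciferase:Neo^r fusion, plated without G418 with a compound dilution series and incubated 24-48 h. Read-out was RNA (^32P-probe protection or TaqMan, normalized to cyclophilin A) or luciferase activity. EC50 from four-parameter fit as percent of DMSO control.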
(A replicon is a self-replicating genome or part of one, used to study replication in cells.)

For assay [2], the target named is HCV NS3/4A protease genotype 1b (Hepatitis C virus genotype 1b, UniProt P26663). Description: HCV NS3/4A protease time-resolved fluorescence (TRF) assay, Ki against genotype 1b. It counts as biochemical. The gist of the method:
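Ki was converted from fitted IC50 using IC50=Ki(1+[S]/KM) and 25 nM substrate. Protease (genotype 1b 0.2 nM, A156T 0.4 nM, 3a 0.025 nM) and compound were pre-mixed 30 min in pH 7.5 HEPES/NaCl/glycerol/DTT buffer. Cleavage then proceeded 2.5 h at room temperature, detected by time-resolved europium fluorescence (340/615 nm).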

Setting [3] is: HCV replicon, genotype 1b, K+ salt.
Where [4] appears, read: IC50 [gt-1b], NS3/4A protease TRF assay, genotype 1b enzyme 0.2 nM, K+ salt.
Setting [5] is: IC50 [gt-1b] (nM), NS3/4A genotype 1b, enzyme 0.2 nM.

Where two headings read alike, the source gives them in different places.

As for `COc1ccc2nc(C3CC3)c3c(c2c1)[C@H](F)C[C@]1(C[C@H]2C(=O)N[C@]4(C(=O)NS(=O)(=O)C5(C)CC5)C[C@H]4/C=C\CCCCC[C@H](NC(=O)O[C@H](C)C(C)C)C(=O)N2C1)O3` [Example 457, (2R)-3-methylbutan-2-yl [(1′R,2S,6S,12Z,13aS,14aR,16aS)-5′-cyclopropyl-1′-fluoro-9′-methoxy-14a-{[(1-methylcyclopropyl)sulfonyl]carbamoyl}-5,16-dioxo-1,1′,2′,5,6,7,8,9,10,11,13a,14,14a,15,16,16a-hexadecahydrospiro[cyclopropa[e]pyrrolo[1,2-a][1,4]diazacyclopentadecine-2,3′-pyrano[2,3-c]quinolin]-6-yl]carbamate], in assay [1] (setting [3]), the EC50 is 1170 pM. The IC50 in assay [2] (setting [4]) worked out at 0.068 nM.
`COc1ccc2c3c(c(C4CC4)nc2c1)O[C@]1(CC3)C[C@H]2C(=O)N[C@]3(C(=O)NS(=O)(=O)C4(C)CC4)C[C@H]3/C=C\CCCCC[C@H](NC(=O)NC(C)(C)C)C(=O)N2C1` [Example 132, (2R,6S,12Z,13aS,14aR,16aS)-6-[(tert-butylcarbamoyl)amino]-5′-cyclopropyl-8′-methoxy-N-[(1-methylcyclopropyl)sulfonyl]-5,16-dioxo-1,1′,2′,6,7,8,9,10,11,13a,14,15,16,16a-tetradecahydrospiro[cyclopropa[e]pyrrolo[1,2-a][1,4]diazacyclopentadecine-2,3′-pyrano[2,3-c]quinoline]-14a(5H)-carboxamide]: the EC50 in assay [1] (genotype 1b replicon) is 1410 pM. In assay [2] (setting [5]), the IC50 was 0.002 nM.
As for `COc1ccc2nc(C(F)F)c3c(c2c1)CC[C@]1(C[C@H]2C(=O)N[C@]4(C(=O)NS(=O)(=O)C5(C)CC5)C[C@H]4/C=C\CCCCC[C@H](NC(=O)OC(C)(C)C)C(=O)N2C1)O3` [Example 10, tert-butyl ((2R,6S,13aS,14aR,16aS,Z)-5′-(difluoromethyl)-9′-methoxy-14a-(((1-methylcyclopropyl)sulfonyl)carbamoyl)-5,16-dioxo-1′,2′,3,5,6,7,8,9,10,11,13a,14,14a,15, 16,16a-hexadecahydro-1H-spiro[cyclopropa[e]pyrrolo[1,2-a][1,4]diazacyclopentadecine-2,3′-pyrano[2,3-c]quinolin]-6-yl)carbamate], the half-maximal effective concentration (EC50) in assay [1] (genotype 1b replicon, K+ salt) was 1110 pM. Moreover, the IC50 in assay [2] (IC50 [gt-1b] (nM), NS3/4A genotype 1b, enzyme 0.2 nM, K+ salt) is 0.013 nM.
Regarding `COc1ccc2nc(C3CCC3)c3c(c2c1)CC[C@]1(C[C@H]2C(=O)N[C@]4(C(=O)NS(=O)(=O)C5(C)CC5)C[C@H]4/C=C\CCCCC[C@H](NC(=O)OCC(C)C)C(=O)N2C1)O3` [Example 171, 2-methylpropyl [(2R,6S,12Z,13aS,14aR,16aS)-5′-cyclobutyl-9′-methoxy-14a-{[(1-methylcyclopropyl)sulfonyl]carbamoyl}-5,16-dioxo-1,1′,2′,5,6,7,8,9,10,11,13a,14,14a,15,16,16a-hexadecahydrospiro[cyclopropa[e]pyrrolo[1,2-a][1,4]diazacyclopentadecine-2,3′-pyrano[2,3-c]quinolin]-6-yl]carbamate], the EC50 in assay [1] (genotype 1b replicon) was 1620 pM. In assay [2] (setting [5]), this compound came in with a concentration for half-maximal inhibition (IC50) of 0.013 nM.
With `Cc1nc2ccc(OCC(F)(F)F)cc2c2c1O[C@]1(CC2)C[C@H]2C(=O)N[C@]3(C(=O)NS(=O)(=O)C4(C)CC4)C[C@H]3/C=C\CCCCC[C@H](NC(=O)OCC(C)(C)C)C(=O)N2C1` [Example 303, 2,2-dimethylpropyl [(2R,6S,12Z,13aS,14aR,16aS)-5′-methyl-14a-{[(1-methylcyclopropyl)sulfonyl]carbamoyl}-5,16-dioxo-9′-(2,2,2-trifluoroethoxy)-1,1′,2′,5,6,7,8,9,10,11,13a,14,14a,15,16,16a-hexadecahydrospiro[cyclopropa[e]pyrrolo[1,2-a][1,4]diazacyclopentadecine-2,3′-pyrano[2,3-c]quinolin]-6-yl]carbamate], the EC50 in assay [1] (genotype 1b replicon) came out at 5790 pM. The same compound yielded an IC50 in assay [2] (setting [5]) of 0.012 nM.
With `CC(C)(C)OC(=O)N[C@H]1CCCCC/C=C\[C@@H]2C[C@@]2(C(=O)NS(=O)(=O)C2(C)CC2)NC(=O)[C@@H]2C[C@]3(CCc4c(cnc5ccccc45)O3)CN2C1=O` [Example 99, tert-butyl [(2R,6S,12Z,13aS,14aR,16aS)-14a-{[(1-methylcyclopropyl)sulfonyl]carbamoyl}-5,16-dioxo-1,1′,2′,5,6,7,8,9,10,11,13a,14,14a,15,16,16a-hexadecahydrospiro[cyclopropa[e]pyrrolo[1,2-a][1,4]diazacyclopentadecine-2,3′-pyrano[2,3-c]quinolin]-6-yl]carbamate], the concentration for a half-maximal effect (EC50) in assay [1] (genotype 1b replicon) came out at 4530 pM. Further, in assay [2] (setting [5]), the 50% inhibitory concentration (IC50) came out at 0.033 nM.
As to `Cc1nc2ccccc2c2c1O[C@]1(CC2)C[C@H]2C(=O)N[C@]3(C(=O)NS(=O)(=O)C4(C)CC4)C[C@H]3/C=C\CCCCC[C@H](NC(=O)NC3CCCC3)C(=O)N2C1` [Example 283, (2R,6S,12Z,13aS,14aR,16aS)-6-[(cyclopentylcarbamoyl)amino]-5′-methyl-N-[(1-methylcyclopropyl)sulfonyl]-5,16-dioxo-1,1′,2′,6,7,8,9,10,11,13a,14,15,16,16a-tetradecahydrospiro[cyclopropa[e]pyrrolo[1,2-a][1,4]diazacyclopentadecine-2,3′-pyrano[2,3-c]quinoline]-14a(5H)-carboxamide], the concentration giving a half-maximal response (EC50) in assay [1] (genotype 1b replicon, HCOOH salt) amounted to 19000 pM. Also, the IC50 in assay [2] (IC50 [gt-1b] (nM), NS3/4A genotype 1b, enzyme 0.2 nM, HCOOH salt) came out at 0.012 nM.
Take `Cc1nc2ccccc2c2c1O[C@]1(CC2)C[C@H]2C(=O)N[C@]3(C(=O)NS(=O)(=O)C4(C)CC4)C[C@H]3/C=C\CCCCC[C@H](NCCc3ccccc3)C(=O)N2C1` [Example 172, (2R,6S,12Z,13aS,14aR,16aS)-5′-methyl-N-[(1-methylcyclopropyl)sulfonyl]-5,16-dioxo-6-[(2-phenylethyl)amino]-1,1′,2′,6,7,8,9,10,11,13a,14,15,16,16a-tetradecahydrospiro[cyclopropa[e]pyrrolo[1,2-a][1,4]diazacyclopentadecine-2,3′-pyrano[2,3-c]quinoline]-14a(5H)-carboxamide]: the EC50 in assay [1] (genotype 1b replicon) was determined as 7990 pM. For the same compound, in assay [2] (setting [5]), the midpoint of inhibition, the IC50, lay at 0.24 nM.
With `COc1ccc2nc(C)c3c(c2n1)CC[C@]1(C[C@H]2C(=O)N[C@]4(C(=O)NS(=O)(=O)C5(C)CC5)C[C@H]4/C=C\CCCCC[C@H](NC(=O)OCC(C)C)C(=O)N2C1)O3` [Example 362, 2-methylpropyl [(2R,6S,12Z,13aS,14aR,16aS)-2′-methoxy-6′-methyl-14a-{[(1-methylcyclopropyl)sulfonyl]carbamoyl}-5,16-dioxo-1,5,6,7,8,9,9′,10,10′,11,13a,14,14a,15,16,16a-hexadecahydrospiro[cyclopropa[e]pyrrolo[1,2-a][1,4]diazacyclopentadecine-2,8′-pyrano[2,3-c][1,5]naphthyridin]-6-yl]carbamate], the concentration giving a half-maximal response (EC50) in assay [1] (HCV replicon, genotype 1b) was determined as 4070 pM. The half-maximal inhibitory concentration (IC50) in assay [2] (IC50 [gt-1b], NS3/4A protease TRF assay, genotype 1b enzyme 0.2 nM) was found to be 0.008 nM.
In the case of `COc1ccc2nc(C3CC3)c3c(c2c1)[C@H](F)C[C@]1(C[C@H]2C(=O)N[C@]4(C(=O)NS(=O)(=O)C5(C)CC5)C[C@H]4/C=C\CCCCC[C@H](NC(=O)OC(C)C)C(=O)N2C1)O3` [Example 456, propan-2-yl [(1′R,2S,6S,12Z,13aS,14aR,16aS)-5′-cyclopropyl-1′-fluoro-9′-methoxy-14a-{[(1-methylcyclopropyl)sulfonyl]carbamoyl}-5,16-dioxo-1,1′,2′,5,6,7,8,9,10,11,13a,14,14a,15,16,16a-hexadecahydrospiro[cyclopropa[e]pyrrolo[1,2-a][1,4]diazacyclopentadecine-2,3′-pyrano[2,3-c]quinolin]-6-yl]carbamate], the EC50 in assay [1] (setting [3]) worked out at 1410 pM. Besides, in assay [2] (setting [4]), the half-inhibitory concentration (IC50) is 0.021 nM.
Regarding `Cc1nc2ccc(OC(F)(F)F)cc2c2c1O[C@]1(CC2)C[C@H]2C(=O)N[C@]3(C(=O)NS(=O)(=O)C4(C)CC4)C[C@H]3/C=C\CCCCC[C@H](NC(=O)OC3(C)CC3)C(=O)N2C1` [Example 122, 1-methylcyclopropyl [(2R,6S,12Z,13aS,14aR,16aS)-5′-methyl-14a-{[(1-methylcyclopropyl)sulfonyl]carbamoyl}-5,16-dioxo-9′-(trifluoromethoxy)-1,1′,2′,5,6,7,8,9,10,11,13a,14,14a,15,16,16a-hexadecahydrospiro[cyclopropa[e]pyrrolo[1,2-a][1,4]diazacyclopentadecine-2,3′-pyrano[2,3-c]quinolin]-6-yl]carbamate], the half-maximal effective concentration (EC50) in assay [1] (genotype 1b replicon) was 1980 pM. In assay [2] (setting [5]), this compound yielded an IC50 of 0.019 nM.
Turning to `Cc1nc2ccc(F)cc2c2c1O[C@]1(CC2)C[C@H]2C(=O)N[C@]3(C(=O)NS(=O)(=O)C4(C)CC4)C[C@H]3/C=C\CCCCC[C@H](NC(=O)OCC(C)C)C(=O)N2C1` [Example 218, 2-methylpropyl [(2R,6S,12Z,13aS,14aR,16aS)-9′-fluoro-5′-methyl-14a-{[(1-methylcyclopropyl)sulfonyl]carbamoyl}-5,16-dioxo-1,1′,2′,5,6,7,8,9,10,11,13a,14,14a,15,16,16a-hexadecahydrospiro[cyclopropa[e]pyrrolo[1,2-a][1,4]diazacyclopentadecine-2,3′-pyrano[2,3-c]quinolin]-6-yl]carbamate], the concentration for a half-maximal effect (EC50) in assay [1] (genotype 1b replicon) was 2150 pM. Further, in assay [2] (setting [5]), the half-maximal inhibitory concentration (IC50) came out at 0.005 nM.
